# Source: ChEMBL document CHEMBL1144933, “Novel bioactive and stable neurotensin peptide analogues capable of delivering radiopharmaceuticals and molecular beacons to tumors” (J Med Chem, 2003)
# *1 amine or outer side, *2 acyl side, *3 side chain or, on linkers, in order; H or OH if unused. Where a SMILES comes first, the peptide text is derived from it. [ ]: non-standard residue; d: D form. The star is where a group is joined. Gly(1-amidinopiperidin-4-yl) = N=C(N)N1CCC([C@H](N)C(=O)O)CC1; Ala(1-amidino-4-piperidyl) = N=C(N)N1CCC(C[C@H](N)C(=O)O)CC1; DTPA = O=C(O)CN(CCN(CC(=O)O)CC(=O)O)CCN(CC(=O)O)CC(=O)*; Phe(4-guanidino) = N=C(N)Nc1ccc(C[C@H](N)C(=O)O)cc1; X1 = NCC1CCC(C[C@H](N[*:1])C(=O)[*:2])CC1; Tle = CC(C)(C)[C@H](N)C(=O)O
# Target: Neurotensin receptor type 1 (Homo sapiens, UniProt P30989)
# Sequence (P30989 whole entry): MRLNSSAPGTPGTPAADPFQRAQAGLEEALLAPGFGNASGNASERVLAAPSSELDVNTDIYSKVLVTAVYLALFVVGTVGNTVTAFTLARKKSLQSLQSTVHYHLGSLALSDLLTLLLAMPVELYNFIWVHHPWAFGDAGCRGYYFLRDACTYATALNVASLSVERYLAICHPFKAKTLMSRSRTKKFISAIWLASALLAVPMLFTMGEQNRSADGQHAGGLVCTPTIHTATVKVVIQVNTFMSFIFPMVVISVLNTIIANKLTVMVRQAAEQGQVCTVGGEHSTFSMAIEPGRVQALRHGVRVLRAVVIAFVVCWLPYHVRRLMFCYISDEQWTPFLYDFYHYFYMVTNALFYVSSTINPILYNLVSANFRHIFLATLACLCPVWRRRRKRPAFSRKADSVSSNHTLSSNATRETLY
# Experiment: Binding affinity towards neurotensin receptor in membranes prepared from HT-29 cell line, relative to [111In]-labeled neurotensin peptide
# Conditions: not given
row,SMILES,IC50
1,CC(C)C[C@H](NC(=O)[C@@H](NC(=O)[C@H](Cc1ccc(O)cc1)NC(=O)[C@@H]1CCCN1C(=O)[C@H](CCCN=C(N)N)NC(=O)[C@H](Cc1ccc(NC(=N)N)cc1)NC(=O)[C@@H]1CCCN1C(=O)[C@@H](CCCCN)NC(=O)CN(CCN(CCN(CC(=O)O)CC(=O)O)CC(=O)O)CC(=O)O)C(C)(C)C)C(=O)O ({DTPA}-[dK]P[Phe(4-guanidino)]RPY[Tle]L-OH),24.6 nM
2,CC(C)(C)C[C@H](NC(=O)[C@@H](NC(=O)[C@H](Cc1ccc(O)cc1)NC(=O)[C@@H]1CCCN1C(=O)[C@H](CCCN=C(N)N)NC(=O)[C@@H](NC(=O)[C@@H]1CCCN1C(=O)[C@@H](CCCCN)NC(=O)CN(CCN(CCN(CC(=O)O)CC(=O)O)CC(=O)O)CC(=O)O)C1CCN(C(=N)N)CC1)C(C)(C)C)C(=O)O,21.7 nM
3,CC(C)C[C@H](NC(=O)[C@@H](NC(=O)[C@H](Cc1ccc(O)cc1)NC(=O)[C@@H]1CCCN1C(=O)[C@H](CCCN=C(N)N)NC(=O)[C@@H](NC(=O)[C@@H]1CCCN1C(=O)[C@H](CC1CCC(CN)CC1)NC(=O)CN(CCN(CCN(CC(=O)O)CC(=O)O)CC(=O)O)CC(=O)O)C1CCN(C(=N)N)CC1)C(C)(C)C)C(=O)O (stereo partly drawn) ({DTPA}-[X1]P[Gly(1-amidinopiperidin-4-yl)]RPY[Tle]L-OH),0.3 nM
4,CC(C)(C)C[C@H](NC(=O)[C@@H](NC(=O)[C@H](Cc1ccc(O)cc1)NC(=O)[C@@H]1CCCN1C(=O)[C@H](CCCNC(=N)N)NC(=O)[C@@H](NC(=O)[C@@H]1CCCN1C(=O)[C@H](CCCCN)NC(=O)[C@H](CC(N)=O)NC(=O)[C@H](CCC(=O)O)NC(=O)[C@@H](Cc1ccc(O)cc1)NC(=O)CN(CCN(CCN(CC(=O)O)CC(=O)O)CC(=O)O)CC(=O)O)C1CCN(C(=N)N)CC1)C(C)(C)C)C(=O)O,0.4 nM
5,CC(C)C[C@H](NC(=O)[C@@H](NC(=O)[C@H](Cc1ccc(O)cc1)NC(=O)[C@@H]1CCCN1C(=O)[C@H](CCCNC(=N)N)NC(=O)[C@@H](NC(=O)[C@H](CCCN=C(N)N)NC(=O)[C@@H]1CCN1C(=O)[C@@H](CCCCN)NC(=O)CN(CCN(CCN(CC(=O)O)CC(=O)O)CC(=O)O)CC(=O)O)C1CCN(C(=N)N)CC1)C(C)(C)C)C(=O)O,11.5 nM
6,CC(C)C[C@H](NC(=O)[C@@H](NC(=O)[C@H](Cc1ccc(O)cc1)NC(=O)[C@@H]1CCN1C(=O)[C@H](CCCN=C(N)N)NC(=O)[C@@H](NC(=O)[C@H](CCCN=C(N)N)NC(=O)[C@@H]1CCCN1C(=O)[C@@H](CCCCN)NC(=O)CN(CCN(CCN(CC(=O)O)CC(=O)O)CC(=O)O)CC(=O)O)C1CCN(C(=N)N)CC1)C(C)(C)C)C(=O)O,113 nM
7,CC(C)C[C@H](NC(=O)[C@@H](NC(=O)[C@H](Cc1ccc(O)cc1)NC(=O)[C@@H]1CCCN1C(=O)[C@H](CCCNC(=N)N)NC(=O)[C@H](CC1CCN(C(=N)N)CC1)NC(=O)[C@@H]1CCCN1C(=O)[C@@H](CCCCN)NC(=O)CN(CCN(CCN(CC(=O)O)CC(=O)O)CC(=O)O)CC(=O)O)C(C)(C)C)C(=O)O ({DTPA}-[dK]P[Ala(1-amidino-4-piperidyl)]RPY[Tle]L-OH),2.5 nM
8,CC(C)(C)[C@H](NC(=O)[C@H](Cc1ccc(O)cc1)NC(=O)[C@@H]1CCCN1C(=O)[C@H](CCCN=C(N)N)NC(=O)[C@@H](NC(=O)[C@@H]1CCCN1C(=O)[C@H](CCCCN)NC(=O)[C@H](CC(N)=O)NC(=O)[C@H](CCC(=O)O)NC(=O)[C@@H](Cc1ccc(O)cc1)NC(=O)CN(CCN(CCN(CC(=O)O)CC(=O)O)CC(=O)O)CC(=O)O)C1CCN(C(=N)N)CC1)C(=O)N[C@@H](CC1CCCCC1)C(=O)O,0.6 nM
9,CC(C)(C)[C@H](NC(=O)[C@H](Cc1ccc(O)cc1)NC(=O)[C@@H]1CCCN1C(=O)[C@H](CCCNC(=N)N)NC(=O)[C@@H](NC(=O)[C@@H]1CCCN1C(=O)[C@@H](CCCCN)NC(=O)CN(CCN(CCN(CC(=O)O)CC(=O)O)CC(=O)O)CC(=O)O)C1CCN(C(=N)N)CC1)C(=O)N[C@@H](CC1CCCC1)C(=O)O,42.4 nM

# Other lines, results leading:
row,IC50,SMILES
1,0.5 nM,CC[C@H](C)[C@H](NC(=O)[C@H](Cc1ccc(O)cc1)NC(=O)[C@@H]1CCCN1C(=O)[C@H](CCCN=C(N)N)NC(=O)[C@H](Cc1ccc(NC(=N)N)cc1)NC(=O)[C@@H]1CCCN1C(=O)[C@@H](CCCCN)NC(=O)CN(CCN(CCN(CC(=O)O)CC(=O)O)CC(=O)O)CC(=O)O)C(=O)N[C@@H](CC(C)C)C(=O)O
2,1.5 nM,CC(C)C[C@H](NC(=O)[C@@H](NC(=O)[C@H](Cc1ccc(O)cc1)NC(=O)[C@@H]1CCCN1C(=O)[C@H](CCCN=C(N)N)NC(=O)[C@@H](NC(=O)[C@@H]1CCCN1C(=O)[C@H](CCCCN)NC(=O)[C@H](CC(N)=O)NC(=O)[C@H](CCC(=O)O)NC(=O)[C@@H](Cc1ccc(O)cc1)NC(=O)CN(CCN(CCN(CC(=O)O)CC(=O)O)CC(=O)O)CC(=O)O)C1CCN(C(=N)N)CC1)C(C)(C)C)C(=O)O
3,0.4 nM,CC[C@H](C)[C@H](NC(=O)[C@H](Cc1ccc(O)cc1)NC(=O)[C@@H]1CCCN1C(=O)[C@H](Cc1ccc(N=C(N)N)cc1)NC(=O)[C@H](CCCNC(=N)N)NC(=O)[C@@H]1CCCN1C(=O)[C@@H](CCCCN)NC(=O)CN(CCN(CCN(CC(=O)O)CC(=O)O)CC(=O)O)CC(=O)O)C(=O)N[C@@H](CC(C)C)C(=O)O
4,22.1 nM,CC[C@H](C)[C@H](NC(=O)[C@H](Cc1ccc(O)cc1)NC(=O)[C@@H]1CCCN1C(=O)[C@H](Cc1ccc(NC(=N)N)cc1)NC(=O)[C@H](Cc1ccc(NC(=N)N)cc1)NC(=O)[C@@H]1CCCN1C(=O)[C@@H](CCCCN)NC(=O)CN(CCN(CCN(CC(=O)O)CC(=O)O)CC(=O)O)CC(=O)O)C(=O)N[C@@H](CC(C)C)C(=O)O ({DTPA}-[dK]P[Phe(4-guanidino)][Phe(4-guanidino)]PYIL-OH)

# Same assay, conditions: ht-29
row,IC50,SMILES
1,1.2 nM,CC[C@H](C)[C@H](NC(=O)[C@H](Cc1ccc(O)cc1)NC(=O)[C@@H]1CCCN1C(=O)[C@H](CCCNC(=N)N)NC(=O)[C@@H](NC(=O)[C@@H]1CCCN1C(=O)[C@@H](CCCCN)NC(=S)Nc1ccc2c(c1)C(=O)OC21c2ccc(O)cc2Oc2cc(O)ccc21)C1CCN(C(=N)N)CC1)C(=O)N[C@@H](CC(C)C)C(=O)O
2,> 1000 nM,CC(C)C[C@H](NC(=O)[C@@H](NC(=O)[C@H](Cc1ccc(O)cc1)NC(=O)[C@@H]1CCCN1C(=O)[C@H](CCCNC(=N)N)NC(=O)[C@@H](NC(=O)[C@@H]1CCCN1C(=O)[C@H](CC1CCN(C(=N)N)CC1)NC(=O)CN(CCN(CCN(CC(=O)O)CC(=O)O)CC(=O)O)CC(=O)O)C1CCN(C(=N)N)CC1)C(C)(C)C)C(=O)O ({DTPA}-[Ala(1-amidino-4-piperidyl)]P[Gly(1-amidinopiperidin-4-yl)]RPY[Tle]L-OH)
3,106 nM,CC(C)C[C@H](NC(=O)[C@@H](NC(=O)[C@H](Cc1cccc(O)c1)NC(=O)[C@@H]1CCCN1C(=O)[C@H](CCCN=C(N)N)NC(=O)[C@@H](NC(=O)[C@@H]1CCCN1C(=O)[C@@H](CCCCN)NC(=O)CN(CCN(CCN(CC(=O)O)CC(=O)O)CC(=O)O)CC(=O)O)C1CCN(C(=N)N)CC1)C(C)(C)C)C(=O)O
4,3.4 nM,CC[C@H](C)[C@H](NC(=O)[C@H](Cc1ccc(O)cc1)NC(=O)[C@@H]1CCCN1C(=O)[C@H](CCCN=C(N)N)NC(=O)[C@@H](NC(=O)[C@@H]1CCCN1C(=O)[C@@H](CCCCNC(=S)Nc1ccc2c(c1)C(=O)OC21c2ccc(O)cc2Oc2cc(O)ccc21)NC(=S)Nc1ccc2c(c1)C(=O)OC21c2ccc(O)cc2Oc2cc(O)ccc21)C1CCN(C(=N)N)CC1)C(=O)N[C@@H](CC(C)C)C(=O)O
5,0.6 nM,CC(C)C[C@H](NC(=O)[C@@H](NC(=O)[C@@H](Cc1ccc(O)cc1)NC(=O)[C@@H]1CCCN1C(=O)[C@H](CCCN=C(N)N)NC(=O)[C@@H](NC(=O)[C@@H]1CCCN1C(=O)[C@@H](CCCCN)NC(=O)CN(CCN(CCN(CC(=O)O)CC(=O)O)CC(=O)O)CC(=O)O)C1CCN(C(=N)N)CC1)C(C)(C)C)C(=O)O
